Data taken from the supplement of paper PMC5908809.

Assays:
[1] = system: normal primary NK cells, pool 1 (3 donors) (IL-2 2.5 ng/mL); test: drug sensitivity score (DSS) (DSS units); higher = more sensitive; extreme values may be limits of the assay; conditions: 72 h
NK-YS (IL-2 2.5 ng/mL) [2] = test: as above; conditions: 72 h
SNK-6 (IL-2 2.5 ng/mL) [3] = test: as above; conditions: 72 h
NKL (IL-2 2.5 ng/mL) [4] = test: as above; conditions: 72 h
[5] = system: normal primary NK cells, pool 3 (3 donors) (IL-2 2.5 ng/mL); test: as above; conditions: 72 h
[6] = system: normal primary NK cells, pool 1 (3 donors), resting (IL-2 0 ng/mL); test: as above; conditions: 72 h
KAI3 (IL-2 2.5 ng/mL) [7] = test: as above; conditions: 72 h
[8] = system: normal primary NK cells, pool 2 (3 donors) (IL-2 2.5 ng/mL); test: as above; conditions: 72 h
IMC-1 (IL-2 20 ng/mL) [9] = test: as above; conditions: 72 h
KHYG-1 (IL-2 2.5 ng/mL) [10] = test: as above; conditions: 72 h
DERL-7 (IL-2 2.5 ng/mL) [11] = test: as above; conditions: 72 h
YT (IL-2 2.5 ng/mL) [12] = test: as above; conditions: 72 h
NK-92 (IL-2 2.5 ng/mL) [13] = test: as above; conditions: 72 h
[14] = system: normal NK cells expanded with K562-aAPC; test: as above; conditions: 72 h; IL-2 2.5 ng/mL
Method: (§1)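 Drug sensitivity and resistance testing on K562-aAPC-expanded normal NK cells: 5 concentrations (10-fold steps over a 10,000-fold range), 72 h at 37 °C, viability by CellTiter-Glo normalised to DMSO and benzethonium chloride controls; DSS from the fitted curve.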

[15] = system: normal NK cells expanded with K562-aAPC; test: percent inhibition of viability; higher = more inhibition; conditions: 72 h, IL-2 2.5 ng/mL
Method: as §1

[16] = system: normal primary NK cells, pool 1 (3 donors) (IL-2 2.5 ng/mL); test: as above; conditions: 72 h
NK-YS (IL-2 2.5 ng/mL) [17] = test: as above; conditions: 72 h
SNK-6 (IL-2 2.5 ng/mL) [18] = test: as above; conditions: 72 h
NKL (IL-2 2.5 ng/mL) [19] = test: as above; conditions: 72 h
[20] = system: normal primary NK cells, pool 3 (3 donors) (IL-2 2.5 ng/mL); test: as above; conditions: 72 h
[21] = system: normal primary NK cells, pool 1 (3 donors), resting (IL-2 0 ng/mL); test: as above; conditions: 72 h
KAI3 (IL-2 2.5 ng/mL) [22] = test: as above; conditions: 72 h
[23] = system: normal primary NK cells, pool 2 (3 donors) (IL-2 2.5 ng/mL); test: as above; conditions: 72 h
IMC-1 (IL-2 20 ng/mL) [24] = test: as above; conditions: 72 h
KHYG-1 (IL-2 2.5 ng/mL) [25] = test: as above; conditions: 72 h
DERL-7 (IL-2 2.5 ng/mL) [26] = test: as above; conditions: 72 h
YT (IL-2 2.5 ng/mL) [27] = test: as above; conditions: 72 h
NK-92 (IL-2 2.5 ng/mL) [28] = test: as above; conditions: 72 h

Nc1ncnc2c1nc(N)n2[C@@H]1O[C@H](CO)[C@@H](O)[C@H]1O [8-amino-adenosine] (max concentration tested 50000 nM)
Conditions	drug sensitivity score
DERL-7 (IL-2 2.5 ng/mL) [11]	24.3
IMC-1 (IL-2 20 ng/mL) [9]	20.1
KAI3 (IL-2 2.5 ng/mL) [7]	26.6
KHYG-1 (IL-2 2.5 ng/mL) [10]	21.4
NK-92 (IL-2 2.5 ng/mL) [13]	25
NK-YS (IL-2 2.5 ng/mL) [2]	22
NKL (IL-2 2.5 ng/mL) [4]	25.6
SNK-6 (IL-2 2.5 ng/mL) [3]	32.5
YT (IL-2 2.5 ng/mL) [12]	21.3
[1]	8.3
[5]	8.22
[6]	4.92
[8]	9.73
[14]	22.2

percent inhibition of viability [%]
Conditions	5 nM	50 nM	500 nM	5000 nM	50000 nM
DERL-7 (IL-2 2.5 ng/mL) [26]	-0.37	-2.93	51.5	101	101
IMC-1 (IL-2 20 ng/mL) [24]	-2.9	-0.37	12.2	101	101
KAI3 (IL-2 2.5 ng/mL) [22]	-12.9	-1.89	75.4	104	106
KHYG-1 (IL-2 2.5 ng/mL) [25]	-1.34	-2.24	21.2	105	109
NK-92 (IL-2 2.5 ng/mL) [28]	-19.1	-2.94	59.2	106	109
NK-YS (IL-2 2.5 ng/mL) [17]	-5.77	-1.64	26	102	108
NKL (IL-2 2.5 ng/mL) [19]	-18.8	6.72	63	107	109
SNK-6 (IL-2 2.5 ng/mL) [18]	24.4	39.9	75.8	99	101
YT (IL-2 2.5 ng/mL) [27]	-0.2	1.01	20.2	102	110
[15]	-1.82	3.86	28.5	101	101
[16]	2.12	-9.21	1.92	26.5	81.2
[20]	-13.3	-8.61	10.2	31	84.2
[21]	-6.09	-20.9	-6.28	5.09	75.2
[23]	-14.7	-1.95	0.14	36.1	88.7
